In PMC6979384, “Characterization of the plant homeodomain (PHD) reader family for their histone tail interactions” (Epigenetics & Chromatin, 2020):

Assays:
Test in all cases: Histone peptide microarray
Assay type in all cases: binding, human
[1] = system: AIRE (PP); details: GST-tagged AIRE (PP); histone peptide array; arrays performed twice, n of 4
Procedure, shortened: (§1)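 Recombinant GST-PHD protein at 0.5 μM; 293-member modified histone peptide array; signals averaged from four repeats ± SD.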

[2] = system: BAZ2B; details: GST-tagged BAZ2B; histone peptide array; arrays performed twice, n of 4
Procedure, shortened: as §1

[3] = system: BPTF (PB); details: GST-tagged BPTF (PB = PHD + Bromodomain); histone peptide array; arrays performed twice, n of 4
Procedure, shortened: as §1

[4] = system: CHD4 (PPCC); details: GST-tagged CHD4 (PPCC = Dual PHD + Dual Chromodomain); histone peptide array; arrays performed twice, n of 4
Procedure, shortened: as §1

[5] = system: CHD5 (PCC); details: GST-tagged CHD5 (PCC = PHD + Dual Chromodomain); histone peptide array; arrays performed twice, n of 4
Procedure, shortened: as §1

[6] = system: CHD5 (PPCC); details: GST-tagged CHD5 (PPCC = Dual PHD + Dual Chromodomain); histone peptide array; arrays performed twice, n of 4
Procedure, shortened: as §1

[7] = system: DIDO1; details: GST-tagged DIDO1; histone peptide array; arrays performed twice, n of 4
Procedure, shortened: as §1

[8] = system: DPF2 (PPC2W2); details: GST-tagged DPF2 (PPC2W2 = Dual PHD + C2W2-type Zn-finger); histone peptide array; arrays performed twice, n of 4
Procedure, shortened: as §1

[9] = system: ING1; details: GST-tagged ING1; histone peptide array; arrays performed twice, n of 4
Procedure, shortened: as §1

[10] = system: ING2; details: GST-tagged ING2; histone peptide array; arrays performed twice, n of 4
Procedure, shortened: as §1

[11] = system: ING3; details: GST-tagged ING3; histone peptide array; arrays performed twice, n of 4
Procedure, shortened: as §1

[12] = system: ING4; details: GST-tagged ING4; histone peptide array; arrays performed twice, n of 4
Procedure, shortened: as §1

[13] = system: ING5; details: GST-tagged ING5; histone peptide array; arrays performed twice, n of 4
Procedure, shortened: as §1

[14] = system: KDM4C (TTP); details: GST-tagged KDM4C (TTP = Tandem Tudor domain + PHD); histone peptide array; arrays performed twice, n of 4
Procedure, shortened: as §1

[15] = system: KDM5A (1); details: GST-tagged KDM5A (1); histone peptide array; arrays performed twice, n of 4
Procedure, shortened: as §1

[16] = system: KDM5A (3); details: GST-tagged KDM5A (3); histone peptide array; arrays performed twice, n of 4
Procedure, shortened: as §1

[17] = system: KDM5B (1); details: GST-tagged KDM5B (1); histone peptide array; arrays performed twice, n of 4
Procedure, shortened: as §1

[18] = system: KDM5B (3); details: GST-tagged KDM5B (3); histone peptide array; arrays performed twice, n of 4
Procedure, shortened: as §1

[19] = system: KDM7A; details: GST-tagged KDM7A; histone peptide array; arrays performed twice, n of 4
Procedure, shortened: as §1

[20] = system: MLL5; details: GST-tagged MLL5; histone peptide array; arrays performed twice, n of 4
Procedure, shortened: as §1

[21] = system: MORC3 (CW); details: GST-tagged MORC3 (CW = CW-type Zn-finger); histone peptide array; arrays performed twice, n of 4
Procedure, shortened: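 A peptide microarray holding 293 synthetic histone peptides with individual or combinatorial modifications was probed with each GST-PHD protein at 0.5 μM. Values represent mean intensity (±SD) from four replicates.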

[22] = system: PHF13; details: GST-tagged PHF13; histone peptide array; arrays performed twice, n of 4
Procedure, shortened: as §1

[23] = system: PHF21A; details: GST-tagged PHF21A; histone peptide array; arrays performed twice, n of 4
Procedure, shortened: as §1

[24] = system: PHF23; details: GST-tagged PHF23; histone peptide array; arrays performed twice, n of 4
Procedure, shortened: as §1

[25] = system: PHF2; details: GST-tagged PHF2; histone peptide array; arrays performed twice, n of 4
Procedure, shortened: as §1

[26] = system: PHF8; details: GST-tagged PHF8; histone peptide array; arrays performed twice, n of 4
Procedure, shortened: as §1

[27] = system: PHRF1 (RP); details: GST-tagged PHRF1 (RP); histone peptide array; arrays performed twice, n of 4
Procedure, shortened: as §1

[28] = system: RAG2; details: GST-tagged RAG2; histone peptide array; arrays performed twice, n of 4
Procedure, shortened: as §1

[29] = system: SP140L; details: GST-tagged SP140L; histone peptide array; arrays performed twice, n of 4
Procedure, shortened: as §1

[30] = system: TAF3; details: GST-tagged TAF3; histone peptide array; arrays performed twice, n of 4
Procedure, shortened: as §1

[31] = system: TRIM66 (PB); details: GST-tagged TRIM66 (PB = PHD + Bromodomain); histone peptide array; arrays performed twice, n of 4
Procedure, shortened: as §1

Substance	Array Heatmap signal, AIRE (PP) [1]	Array Heatmap signal, BAZ2B [2]	Array Heatmap signal, BPTF (PB) [3]	Array Heatmap signal, CHD4 (PPCC) [4]	Array Heatmap signal, CHD5 (PCC) [5]	Array Heatmap signal, CHD5 (PPCC) [6]	Array Heatmap signal, DIDO1 [7]	Array Heatmap signal, DPF2 (PPC2W2) [8]	Array Heatmap signal, ING1 [9]	Array Heatmap signal, ING2 [10]	Array Heatmap signal, ING3 [11]	Array Heatmap signal, ING4 [12]	Array Heatmap signal, ING5 [13]	Array Heatmap signal, KDM4C (TTP) [14]	Array Heatmap signal, KDM5A (1) [15]	Array Heatmap signal, KDM5A (3) [16]	Array Heatmap signal, KDM5B (1) [17]	Array Heatmap signal, KDM5B (3) [18]	Array Heatmap signal, KDM7A [19]	Array Heatmap signal, MLL5 [20]	also measured
H4R3me2s: H4 1-23 [Peptide H4R3me2s]	0.462	0.5351	0.3851	0.556	0.8078	0.5547	0.7583	0.7228	0.5148	0.6344	0.498	0.4621	0.3741	0.5129	0.4765	0.6488	0.7045	0.5522	0.4774	0.6336	Array Heatmap signal, MORC3 (CW) [21]: 0.4671; Array Heatmap signal, PHF13 [22]: 0.6145; Array Heatmap signal, PHF21A [23]: 0.451; Array Heatmap signal, PHF23 [24]: 0.6199; Array Heatmap signal, PHF2 [25]: 0.5067; Array Heatmap signal, PHF8 [26]: 0.4581; Array Heatmap signal, PHRF1 (RP) [27]: 0.4693; Array Heatmap signal, RAG2 [28]: 0.376; Array Heatmap signal, SP140L [29]: 0.3481; Array Heatmap signal, TAF3 [30]: 0.3502; Array Heatmap signal, TRIM66 (PB) [31]: 0.614
H4S1p + R3me2a: H4 1-23	0.6422	0.5882	0.4592	0.6213	0.908	0.617	0.8161	0.7324	0.5568	0.6378	0.5499	0.5743	0.4163	0.5709	0.5298	0.5495	0.7314	0.6926	0.485	0.6348	Array Heatmap signal, MORC3 (CW) [21]: 0.5537; Array Heatmap signal, PHF13 [22]: 0.7049; Array Heatmap signal, PHF21A [23]: 0.4964; Array Heatmap signal, PHF23 [24]: 0.6265; Array Heatmap signal, PHF2 [25]: 0.5511; Array Heatmap signal, PHF8 [26]: 0.44; Array Heatmap signal, PHRF1 (RP) [27]: 0.5062; Array Heatmap signal, RAG2 [28]: 0.4591; Array Heatmap signal, SP140L [29]: 0.4294; Array Heatmap signal, TAF3 [30]: 0.5622; Array Heatmap signal, TRIM66 (PB) [31]: 0.7721
H4S1p + R3me2s: H4 1-23	0.5797	0.546	0.4125	0.6243	0.9435	0.6121	0.7409	0.7264	0.5472	0.6427	0.5221	0.5288	0.4164	0.5709	0.508	0.5274	0.7342	0.6247	0.5358	0.6789	Array Heatmap signal, MORC3 (CW) [21]: 0.5092; Array Heatmap signal, PHF13 [22]: 0.6986; Array Heatmap signal, PHF21A [23]: 0.5145; Array Heatmap signal, PHF23 [24]: 0.5739; Array Heatmap signal, PHF2 [25]: 0.514; Array Heatmap signal, PHF8 [26]: 0.4081; Array Heatmap signal, PHRF1 (RP) [27]: 0.4781; Array Heatmap signal, RAG2 [28]: 0.4186; Array Heatmap signal, SP140L [29]: 0.3935; Array Heatmap signal, TAF3 [30]: 0.439; Array Heatmap signal, TRIM66 (PB) [31]: 0.8775
